Results on three compounds are retold here after patent publication US20120128665A1, “PRESELECTION OF SUBJECTS FOR THERAPEUTIC TREATMENT BASED ON HYPOXIC STATUS” (SYNTA PHARMACEUTICALS CORP., priority 2010, published 2012).

Like-named read-outs stand apart in the source and are kept apart here.

The test system of series [1] is previously treated metastatic renal cell carcinoma (mRCC). Particulars: Phase III, 2010; cited from earlier work.
Series [2] has as its system breast cancer. The following applies: xenograft models; cited from earlier work.
Series [3] has as its system advanced pancreatic cancer. The following applies: Phase III, combination with Gemcitabine; cited from earlier work.
Series [4] has as its system advanced pancreatic cancer. Particulars: Phase II, combination with Gemcitabine; cited from earlier work.
Series [5] relates to cancer of the parotid gland. Particulars: one patient; ganetespib 150 mg/m^2 with docetaxel 75 mg/m^2; cited from earlier work.
The test system of series [6] is advanced relapsed/refractory NSCLC. Particulars: cited from earlier work.
Series [7] relates to wide range of cancer types. Particulars: cited from earlier work.
Series [8] deals with solid tumors. The following applies: once-weekly dosing; cited from earlier work.
Series [9] has as its system HCT116 tumors vs 786O tumors. Nature of the series: response of hypoxic vs non-hypoxic tumors. It counts as in vivo, nude mice. The following applies: doses as in the 3rd table.
Series [10] relates to metastatic colorectal cancer. Particulars: cited from earlier work.
The subject of series [11] is 786-O human renal carcinoma xenograft. The experiment in a line: 786-O xenograft model (non-hypoxic tumor). The series is classed as in vivo, nude mice. The protocol:
(§1) Human tumor cell lines HCT116 (ATCC #CRL-247; Schroy PC, et al. Cancer 76:201-209, 1995) and 786-O (ATCC #CRL-1932; Williams RD, et al. In Vitro 12:623-627, 1976), were obtained from the American Type Culture Collection (Manassus, Va., USA) were cultured using routine methods until a sufficient number of cells were obtained for implantation. Studies were conducted on animals between 7 and 12 weeks of age at implantation. To implant HCT116 tumor cells into nude mice, the cells were trypsinized, washed in PBS and resuspended at a concentration of 75×10^6 cells/ml in McCoy's modified medium with 50% of BD Matrigel® Basement Membrane Matrix (BD Biosciences®, Bedford, Mass., USA). To implant 786-O tumor cells into nude mice, the cells were trypsinized as above, washed in PBS and resuspended at a concentration of 75×10^6 cells/ml in RPMI 1640 medium with 50% of BD Matrigel® Basement Membrane Matrix. Using a 27 gauge needle and 1 cc syringe, 0.1 ml of the cell suspension was injected into the corpus adiposum of nude mice. The corpus adiposum is a fat body located in the ventral abdominal vicera in the right quadrant of the abdomen at the juncture of the os coxae (pelvic bone) and the os femoris (femur). The location permits palpation and measurement of the tumors using external calipers. Tumor volumes (V) were calculated by caliper measurement of the width (W), length (L) and thickness (T) of tumors using the following formula: V=0.5236×(L×W×T). Animals were randomized into treatment groups so that the average tumor volumes of each group were similar at the start of dosing.
(§2) A tumor model in which the tumors have relatively high and low levels of LDH5, indicating high and low levels of hypoxia, using human tumor cell lines HCT116 and 786-O was established as set forth in the previous example.
(§3) As above, HCT116 and 786-O cells were cultured and implanted into nude mice using the methods in the previous example. Tumor growth was measured using calipers. Prior to treatment with the various agents, tumors were permitted to develop in vivo until they reached approximately 150 mm^3 in volume, which typically required 2-3 weeks following implantation. Animals were randomized into treatment groups so that the average tumor volumes of each group were similar at the start of dosing.
(§4) Tumor volume was monitored throughout the course of the study, until up to about 40 days from the date of tumor implantation. The exact number of days of the study depended on a number of factors including, for example, the number of days from implantation for the tumors to reach the desired volume.

Series [12] deals with metastatic colorectal cancer. Particulars: cited from earlier work. The source holds these as a separate data set.
Series [13] deals with metastatic pancreatic cancer. Particulars: cited from earlier work.
Series [14] concerns glioblastoma. Particulars: 85 patients treated with bevacizumab alone; cited from earlier work.
The test system of series [15] is HER2-negative, metastatic breast cancer. The following applies: added to standard chemotherapy; cited from earlier work.
For series [16], the system named is glioblastoma. Particulars: 56 patients treated with bevacizumab alone; cited from earlier work.
Series [17] relates to advanced non-squamous, non-small cell lung cancer (NSCLC). The following applies: bevacizumab arm = with paclitaxel and carboplatin; comparator chemotherapy alone; statistically significant; cited from earlier work.
Series [18] concerns renal cancer. The following applies: cited from earlier work.
For series [19], the system named is HCT116 human colon carcinoma xenograft. Nature of the series: HCT116 xenograft model (hypoxic tumor). It counts as in vivo, nude mice. The protocol: as §1, §2, §3, §4

For `CNC(=O)c1ccccc1Sc1ccc2c(/C=C/c3ccccn3)n[nH]c2c1` [Axitinib, N-Methyl-2-[[3-[(E)-2-pyridin-2-ylethenyl]-1H-indazol-6-yl]sulfanyl]benzamide], the “progression-free survival compared to sorafenib” value in series [1] is given as “significantly extended progression-free survival”. In series [2], the “growth of breast cancer” value is listed as “significantly inhibit growth”. The “survival rates over Gemcitabine alone” value in series [3] is on record as “no evidence of improved survival rates”. The response entry in series [4] is listed as “good response”.
`CC(C)c1cc(-c2nnc(O)n2-c2ccc3c(ccn3C)c2)c(O)cc1O` [ganetespib]: the “shrinkage of target tumor lesions, confirmed partial response” value in series [5] is listed as “over 50%”. For the same compound, the “patients with durable, objective responses” value in series [6] (ALK rearrangement, four patients) is 50%. Also, the “patients who received ganetespib for 16 weeks or more” value in series [6] (ALK rearrangement, seven of eight) was 88%. Besides, the “patients with tumor shrinkage” value in [6] (ALK rearrangement, six of eight patients) is 75%. In addition, the disease control rate in [6] (broad population) was 54%. In [6] (compared with other Hsp90 inhibitors), the “hepatic and ocular toxicities” value is listed as “did not have the serious hepatic or common ocular toxicities”. In [6] (in vivo), the tolerability entry is “well tolerated”. The “patients with tumor shrinkage” value in series [6] (tumors with a KRAS mutation) is on record as 62%. Besides, the “activity against cancers resistant to imatinib, sunitinib, erlotinib and dasatinib” value in [7] is “potent activity”. Further, in series [7] (lung, prostate, colon, breast, gastric, pancreatic, GIST, melanoma, AML, CML, lymphomas, multiple myeloma, in vitro and in vivo models), the “activity against a wide range of cancer types” value is recorded as “potent activity”. Besides, in series [8], the “evaluable patients with disease control” value was “more than half”; the “outcome in several patients who had progressed or failed multiple prior therapies” value was “substantial tumor shrinkage and prolonged disease control”. Besides, in series [9], the “effectiveness at slowing tumor growth in tumors with high levels of hypoxia (HCT116) compared with low levels (786O)” value is recorded as “not found to work better”.
Turning to “bevacizumab: recombinant humanized monoclonal IgG1 antibody that binds to and inhibits human vascular endothelial growth factor (VEGF)”, the median survival in series [10] (bevacizumab arm = bevacizumab plus 5-FU/Leucovorin, comparator 5-FU/Leucovorin alone, not statistically significant) is 16.6 months; in series [12] (bevacizumab and 5-FU/Leucovorin (n=249) vs IFL regimen alone), 17.9 months. The “improvement in median survival” value in series [10] (bevacizumab plus 5-FU/Leucovorin vs 5-FU/Leucovorin alone) is 29%. Also, the “tumor burden as compared to control” value in series [11] (bevacizumab higher dose (4 mg/kg) i.p., p=0.011) is on record as “greatest tumor burden”; in series [11] (low dose bevacizumab (1 mg/kg) i.p., p=0.437) it was “no significant difference in tumor burden”. For the same compound, in series [12] (bevacizumab plus 5-FU/Leucovorin vs IFL regimen alone), the progression-free survival was 8.7 months. For the same compound, in series [13] (bevacizumab vs placebo arm, both with gemcitabine and erlotinib, 95% CI 0.61 to 0.96, P=0.0002), the “progression free survival HR” value is recorded as 0.73. The median overall survival in [13] (bevacizumab, gemcitabine and erlotinib, 306 patients) is reported as 7.1 months; in series [17], 12.5 months. The “patients whose tumors shrank” value in [14] was 26%. Besides, the “effectiveness at slowing tumor growth in tumors with high levels of hypoxia (HCT116) compared with low levels (786O)” value in series [9] is “more effective”. The “keeping cancer from worsening” value in series [15] is reported as “does not keep cancer from worsening for a long enough time to be clinically meaningful”. The patients who responded in series [16] was 20%. The “patients with decreased tumor size” value in series [18] (bevacizumab arm = with interferon-alpha, comparator interferon-alpha alone) is reported as 30%. For the same compound, the “increase in progression-free survival time compared to interferon-alpha alone” value in [18] (bevacizumab with interferon-alpha) is “about 5 months”. Besides, the “tumor growth as compared to control” value in series [19] (bevacizumab higher dose (4 mg/kg) i.p., p=0.0424) is listed as “reduced the growth of the tumor”; in [19] (bevacizumab lower concentration (1 mg/kg) i.p., p=0.1274) it was “small trend to decreased tumor growth”.
